The values that follow come from patent US20210079039A1, “COMPOSITIONS AND METHODS FOR THE SELECTIVE DELIVERY OF THERAPEUTIC AND IMAGING AGENTS” (Avelas Biosciences, Inc., priority 2018, published 2021).

Numbered stars: 1 amine (or outer) side, 2 acyl side, 3 side chain; on linkers, the order of the positions; unused ones are H or OH. Square brackets hold non-standard residues; d marks the D form. Peptide text beside a SMILES is read from it. * marks the point of attachment. ξ: configuration not given here. Dolaproine(all-ξ) = COC(C(C)C(=O)[*:2])C1CCCN1[*:1]; Dolaproine = CO[C@@H]([C@@H]1CCCN1)[C@@H](C)C(=O)O; Hexanoyl(6-maleimido) = O=C1C=CC(=O)N1CCCCCC(=O)*; X1 = CC(C)[C@@H](C(=O)[*:2])N(C)C[C@@H](C)N[*:1]; Dil = CC[C@H](C)[C@H](NC)[C@@H](CC(=O)O)OC; X2 = CCC(C)C(C(CC(=O)[*:2])OC)N(C)[*:1]; X5 = CC(C)[C@@H](C(=O)*)N(C)C[C@@H](C)N; X4 = CC(C)[C@@H](C(=O)*)N(C)C[C@H](C)N; Cit = NC(=O)NCCC[CH](N)C(=O)O; NMeV = CN[CH](C(=O)O)C(C)C; ξCit = NC(=O)NCCCC(N)C(=O)O; X3 = CC(N*)C(O)c1ccccc1; Me2Gly = CN(C)CC(=O)*

One assay deals with HT1080 Cells. Nature of the assay: Active Cellular Cytotoxic (ACC) molecules efficacy in HT1080 cells in vitro assay. The class given is cell-based. The settings on record: Homo sapiens, HT-1080, 96 h, four days incubation, Prestoblue, average error of 38%. As for the experimental part:
Method: Plate cells one day prior to start of assay in 96 well black with clear bottom plates (Corning #3603), 2×10^4 cells per well in 100 μL of standard growth media (according to ATCC). Grow cells to 90% confluency.
Before start of assay rinse cells 1× with DPBS. Add compounds in a 3-fold serial dilution in triplicate (range e.g. 40 μM-18 nM), 100 μL per well in standard growth media.
Incubate four days then assay cell viability as described below. Remove media and rinse 1× with DPBS, then add 100 μL per well 10% Prestoblue Cell viability reagent (Thermo Fisher Scientific #A13261) in complete media. Return to incubator for two hours then read plate on SpectraMax M2e, bottom read excitation 555 emission 585 cut-off 570 which measures number of live cells. Cell viability was plotted versus compound concentration and data were fit to Log inhibitor vs response curve in GraphPad Prism and EC50 were determined.
Table 14 provides cellular activity data for exemplary ACCs (compound EC50 for reduction of viable cells).

Assay [1] has as its system HT-1080 human fibrosarcoma tumor xenograft. Nature of the assay: HT-1080 human fibrosarcoma tumor xenograft therapeutic model. It counts as in vivo, athymic nude mice. The note with it: 0.6 to 3.0 mg/kg of cytotoxic agent component, IV on days 0 and 3, tumor volume at day 9. As for the experimental part:
Female athymic nude mice (8-10 weeks old) purchased from Charles River (Wilmington, 01887, MA) were used after 4-7 day of acclimatization period. Institutional Animal Care and Use Committee (IACUC) approved protocols #EB11-002-009-1 and CP-17-09. HT-1080 human fibrosarcoma tumor cells from ATCC (CCL-121™) were grown using standard cell culture techniques. Tumor cells (1×10^8 tumor cells/mL) were suspended in DPBS/Matrigel™ (1:1 vol) and implanted subcutaneously (50 μL tumor cell suspension/mouse) into the upper mammary fat pad or right flank of mice with individual identification number (ear tag). Four to seven days later when the average tumor volume was about 50-100 mm^3, mice were randomized into different experimental groups to have similar averaged (Mean±SEM) tumor volume and dosed with (i) vehicle and (ii) different doses of test compounds. Each group typically had 4 mice. For each involved tumor-bearing mouse, the tumor volume (mm^3) was measured using a caliper and calculated as follows: tumor volume=width^2×length/2. Test compounds were administered intravenously (tail vein) twice (two administrations 3 days apart) in conscious restrained tumor-bearing mice throughout the study. Individual tumor volume, body weight as well as clinical signs were recorded during the study. Each study was terminated on day 12 post-dosing initiation. Mice were euthanized by intracardiac ketamine-xylazine overdose after recording the last individual body weight and tumor volume. For each experimental group and study day, the tumor volumes from all mice were averaged and expressed as Mean±SD. In order to directly and objectively compare anti-tumor activity of candidate SDM's, tumor volume was assessed at the same Day 9 timepoint (6 days after the cessation of test compound administration) for each experimental cohort of test compound-treated group(s) and vehicle. Graphs show tumor volume in cubic millimeters versus time. […] Compound administration is indicated by downward arrow over data point on day 0 and 3.

`CC[C@H](C)[C@@H]([C@@H](CC(=O)N1CCC[C@H]1[C@H](OC)[C@@H](C)C(=O)N[C@@H](Cc1ccccc1)C(=O)O)OC)N(C)C(=O)[C@@H](NC(=O)[C@H](C(C)C)N(C)C[C@@H](C)N)C(C)C` [ACC-10] (X5-V[Dil][Dolaproine]F-OH) returned a 50% effective concentration (EC50) in the assay with HT1080 Cells of 1.02 µM.

Regarding `CC[C@H](C)[C@@H]([C@@H](CC(=O)N1CCC[C@H]1[C@H](OC)[C@@H](C)C(=O)N[C@@H](Cc1ccccc1)C(=O)O)OC)N(C)C(=O)[C@@H](NC(=O)[C@H](C(C)C)N(C)C(=O)CN)C(C)C` [ACC-5] (HELM PEPTIDE1{G.[meV].V.[CC[C@H](C)[C@@H]([C@@H](CC(=O)[*:2])OC)N(C)[*:1]].[CO[C@H]([C@@H](C)C(=O)[*:2])[C@@H]1CCCN1[*:1]].F}$$$$V2.0), it took 0.71 µM to reach a half-maximal effect in the assay on HT1080 Cells (EC50).

Consider `CC[C@H](C)[C@@H]([C@@H](CC(=O)N1CCC[C@H]1[C@H](OC)[C@@H](C)C(=O)N[C@@H](Cc1ccccc1)C(=O)O)OC)N(C)C(=O)[C@@H](NC(=O)[C@H](C(C)C)N(C)C[C@H](C)N)C(C)C` [ACC-11] (X4-V[Dil][Dolaproine]F-OH), for which it took 1.74 µM to reach a half-maximal effect with HT1080 Cells (EC50).

Compound `CC[C@H](C)[C@@H]([C@@H](CC(=O)N1CCC[C@H]1[C@H](OC)[C@@H](C)C(=O)N[C@@H](Cc1ccccc1)C(=O)O)OC)N(C)C(=O)[C@@H](NC(=O)[C@H](C(C)C)N(C)C(=O)CN(C)C)C(C)C` [ACC-1] (Me2Gly-[NMeV]V[Dil][Dolaproine]F-OH) gave a half-maximal effective concentration (EC50) in the assay on HT1080 Cells of 2.1 µM.

`CC[C@H](C)[C@@H]([C@@H](CC(=O)N1CCC[C@H]1[C@H](OC)[C@@H](C)C(=O)N[C@@H](Cc1ccccc1)C(=O)O)OC)N(C)C(=O)[C@@H](NC(=O)[C@H](C(C)C)N(C)C[C@@H](C)NC(=O)CN)C(C)C` [ACC-8] (H-G[X1]V[Dil][Dolaproine]F-OH) registered an EC50 in the assay on HT1080 Cells of 0.91 µM.

Turning to `CC[C@H](C)[C@@H]([C@@H](CC(=O)N1CCC[C@H]1[C@H](OC)[C@@H](C)C(=O)N[C@@H](Cc1ccccc1)C(=O)NC)OC)N(C)C(=O)[C@@H](NC(=O)[C@H](C(C)C)N(C)C(=O)CNC(=O)[C@H](CCCNC(N)=O)NC(=O)[C@@H](NC(=O)CCCCCN1C(=O)C=CC1=O)C(C)C)C(C)C` [SDM-380] ({Hexanoyl(6-maleimido)}-V[Cit]G[NMeV]V[Dil][Dolaproine]F-NHMe), the “Efficacy (percent tumor growth inhibition versus vehicle)” value in assay [1] was “Low (Low: <29% inhibition)”.

On to `CC[C@H](C)[C@@H]([C@@H](CC(=O)N1CCC[C@H]1[C@H](OC)[C@@H](C)C(=O)N[C@@H](Cc1ccccc1)C(=O)OC)OC)N(C)C(=O)[C@@H](NC(=O)[C@H](C(C)C)N(C)C[C@@H](C)NC(=O)C(CCCNC(N)=O)NC(=O)[C@@H](NC(=O)CCCCCN1C(=O)C=CC1=O)C(C)C)C(C)C` (stereo partly drawn) [SDM-344] ({Hexanoyl(6-maleimido)}-V[ξCit][X1]V[Dil][Dolaproine]F-OMe), for which the “Efficacy (percent tumor growth inhibition versus vehicle)” value in assay [1] is on record as “Medium (Medium: ≥29% inhibition to <80% inhibition)”.

As to `CCC(C)C(C(CC(=O)N1CCCC1C(OC)C(C)C(=O)NC(C)C(O)c1ccccc1)OC)N(C)C(=O)C(NC(=O)C(C(C)C)N(C)C(=O)CNC(=O)C(CCCNC(N)=O)NC(=O)C(NC(=O)CCCCCN1C(=O)C=CC1=O)C(C)C)C(C)C` (stereo not drawn) [SDM-320, maleimidocaproyl-valine-citrulline-GlyMMAE] ({Hexanoyl(6-maleimido)}-V[Cit]G[NMeV]V[X2][Dolaproine(all-ξ)]-X3; configuration not given here), the “Efficacy (percent tumor growth inhibition versus vehicle)” value in assay [1] is given as “Low (Low: <29% inhibition)”.

In the assay on HT1080 Cells, `CC[C@H](C)[C@@H]([C@@H](CC(=O)N1CCC[C@H]1[C@H](OC)[C@@H](C)C(=O)N[C@@H](Cc1ccccc1)C(=O)O)OC)N(C)C(=O)[C@@H](NC(=O)[C@H](C(C)C)N(C)C(=O)CNC)C(C)C` [ACC-4] (HELM PEPTIDE1{[Sar].[meV].V.[CC[C@H](C)[C@@H]([C@@H](CC(=O)[*:2])OC)N(C)[*:1]].[CO[C@H]([C@@H](C)C(=O)[*:2])[C@@H]1CCCN1[*:1]].F}$$$$V2.0) displayed an EC50 of 4.4 µM.
